Data taken from ChEMBL document CHEMBL1152013, “()-Phenylahistin: A new mammalian cell cycle inhibitor produced by aspergillus ustus” (Bioorg Med Chem Lett, 1997).

System: P388
Test: Inhibitory concentration required for cytotoxic effect against P388 murine leukemia cells
Type: functional, cell-based
Details: Mus musculus

| Compound | IC50 |
| --- | --- |
| C=CC(C)(C)c1[nH]cnc1/C=C1\NC(=O)[C@H](Cc2ccccc2)NC1=O | 0.35 µM |
| C=CC(C)(C)c1[nH]cnc1/C=C1\NC(=O)[C@@H](Cc2ccccc2)NC1=O | 38 µM |
